{
  "source": "ChEMBL document CHEMBL5465560",
  "about": "“Selectivity Literature for EUbOPEN Chemogenomic Library” (2024)",
  "key": {"[1]": {"target": "Cyclin-dependent kinase 18 (Homo sapiens) (UniProt Q07002)", "sequence (Q07002 whole entry)": "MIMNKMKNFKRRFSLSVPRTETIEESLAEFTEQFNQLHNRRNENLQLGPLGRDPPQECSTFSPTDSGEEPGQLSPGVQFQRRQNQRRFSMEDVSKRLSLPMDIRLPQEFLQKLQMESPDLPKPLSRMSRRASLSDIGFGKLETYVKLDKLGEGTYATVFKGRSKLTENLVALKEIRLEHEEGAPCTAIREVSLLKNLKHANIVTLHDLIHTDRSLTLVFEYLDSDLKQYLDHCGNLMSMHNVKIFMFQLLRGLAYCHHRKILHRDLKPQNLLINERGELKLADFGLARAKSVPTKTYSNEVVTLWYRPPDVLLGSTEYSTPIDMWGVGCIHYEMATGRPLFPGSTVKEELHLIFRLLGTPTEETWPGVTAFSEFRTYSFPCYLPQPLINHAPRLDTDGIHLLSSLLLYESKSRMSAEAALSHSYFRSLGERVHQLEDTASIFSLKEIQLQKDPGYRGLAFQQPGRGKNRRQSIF", "assay": "Selectivity interaction (KinomeScan (DiscoverX)) EUB0001049a CDK18", "details": "at 1 µM"}, "[2]": {"target": "Mitogen-activated protein kinase 9 (Homo sapiens, UniProt P45984)", "sequence (P45984 whole entry)": "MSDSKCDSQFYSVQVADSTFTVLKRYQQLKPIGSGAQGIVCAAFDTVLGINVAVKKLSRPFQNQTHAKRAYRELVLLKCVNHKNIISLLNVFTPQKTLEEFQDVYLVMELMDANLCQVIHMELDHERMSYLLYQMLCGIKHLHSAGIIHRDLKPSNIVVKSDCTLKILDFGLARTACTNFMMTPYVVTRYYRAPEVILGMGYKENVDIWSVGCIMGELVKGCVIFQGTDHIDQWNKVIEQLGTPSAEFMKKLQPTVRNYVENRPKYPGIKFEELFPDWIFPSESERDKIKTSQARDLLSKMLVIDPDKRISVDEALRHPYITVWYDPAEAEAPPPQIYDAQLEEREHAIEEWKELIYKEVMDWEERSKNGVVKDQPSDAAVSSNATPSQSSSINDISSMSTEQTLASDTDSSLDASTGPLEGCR", "assay": "Selectivity interaction (Enzymatic assay) EUB0001199aCl MAPK9"}, "[3]": {"target": "T1, Inhibitor of nuclear factor kappa-B kinase subunit beta (Homo sapiens) (UniProt O14920)", "T1 sequence (whole entry)": "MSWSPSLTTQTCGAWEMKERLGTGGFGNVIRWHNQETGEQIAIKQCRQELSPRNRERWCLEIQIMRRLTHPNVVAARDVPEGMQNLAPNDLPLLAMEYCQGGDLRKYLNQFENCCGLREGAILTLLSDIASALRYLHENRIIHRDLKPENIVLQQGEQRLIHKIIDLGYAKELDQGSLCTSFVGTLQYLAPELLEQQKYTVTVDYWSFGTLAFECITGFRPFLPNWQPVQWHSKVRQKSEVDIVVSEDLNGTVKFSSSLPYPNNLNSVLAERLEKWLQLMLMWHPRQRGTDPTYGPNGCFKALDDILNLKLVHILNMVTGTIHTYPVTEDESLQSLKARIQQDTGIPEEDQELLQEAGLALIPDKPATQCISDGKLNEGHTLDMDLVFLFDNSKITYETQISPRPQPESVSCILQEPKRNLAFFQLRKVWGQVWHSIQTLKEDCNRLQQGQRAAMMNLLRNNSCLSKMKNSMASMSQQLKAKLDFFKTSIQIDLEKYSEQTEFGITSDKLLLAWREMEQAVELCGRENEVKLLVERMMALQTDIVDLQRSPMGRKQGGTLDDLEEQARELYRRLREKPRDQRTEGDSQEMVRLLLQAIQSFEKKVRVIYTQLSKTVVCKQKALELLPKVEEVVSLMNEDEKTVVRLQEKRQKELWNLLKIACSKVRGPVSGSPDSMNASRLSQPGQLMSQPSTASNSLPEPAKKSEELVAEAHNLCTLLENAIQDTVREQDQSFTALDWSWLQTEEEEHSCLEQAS", "assay": "Selectivity interaction (KinomeScan (DiscoverX)) EUB0000666a IKBKB", "details": "at 10 µM"}, "[4]": {"target": "T2, Serine/threonine-protein kinase Sgk2 (Homo sapiens) (UniProt Q9HBY8)", "T2 sequence (whole entry)": "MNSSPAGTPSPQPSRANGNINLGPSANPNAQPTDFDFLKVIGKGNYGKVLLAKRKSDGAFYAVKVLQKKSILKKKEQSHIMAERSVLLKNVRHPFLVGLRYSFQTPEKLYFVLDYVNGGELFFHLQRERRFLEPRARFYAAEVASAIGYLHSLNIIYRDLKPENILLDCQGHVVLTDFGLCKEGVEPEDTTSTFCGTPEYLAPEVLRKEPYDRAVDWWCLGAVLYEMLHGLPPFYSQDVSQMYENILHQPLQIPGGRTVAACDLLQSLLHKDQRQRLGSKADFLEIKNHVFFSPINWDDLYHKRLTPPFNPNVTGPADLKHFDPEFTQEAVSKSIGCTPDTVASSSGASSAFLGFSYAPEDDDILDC", "assay": "Selectivity interaction (KinomeScan (DiscoverX)) EUB0001079a SGK2", "details": "at 1 µM"}, "[5]": {"target": "RAF proto-oncogene serine/threonine-protein kinase (Homo sapiens) (UniProt P04049)", "sequence (P04049 whole entry)": "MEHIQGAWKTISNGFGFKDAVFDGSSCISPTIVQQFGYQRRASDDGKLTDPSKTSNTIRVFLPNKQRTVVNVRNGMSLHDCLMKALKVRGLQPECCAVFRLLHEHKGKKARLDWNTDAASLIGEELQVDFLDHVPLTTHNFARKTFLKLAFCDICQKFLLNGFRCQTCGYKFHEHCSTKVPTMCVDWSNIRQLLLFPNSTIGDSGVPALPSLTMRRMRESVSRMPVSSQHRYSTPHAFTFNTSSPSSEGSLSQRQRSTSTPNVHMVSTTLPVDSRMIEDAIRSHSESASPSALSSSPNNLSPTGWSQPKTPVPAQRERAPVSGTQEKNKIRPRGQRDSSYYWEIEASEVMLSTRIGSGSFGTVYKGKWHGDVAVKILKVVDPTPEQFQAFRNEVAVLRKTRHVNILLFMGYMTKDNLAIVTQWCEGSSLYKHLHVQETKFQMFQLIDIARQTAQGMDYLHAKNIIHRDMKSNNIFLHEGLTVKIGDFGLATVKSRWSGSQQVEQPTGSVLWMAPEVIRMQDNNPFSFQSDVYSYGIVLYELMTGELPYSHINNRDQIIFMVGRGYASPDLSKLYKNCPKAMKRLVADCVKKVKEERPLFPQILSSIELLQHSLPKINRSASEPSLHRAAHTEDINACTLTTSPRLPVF", "assay": "Selectivity interaction (Kinase panel (KiNativ target engagement assay in Jurkat cells)) EUB0001635a RAF1", "format": "cell-based", "details": "Selectivity number of off-targets 0.0, Selectivity number of targets 233.0, Source Knowledge https://www.sciencedirect.com/science/article/pii/S2451945619300674?via%3Dihub, at 1 µM"}, "[6]": {"target": "MAP kinase-interacting serine/threonine-protein kinase 2 (Homo sapiens, UniProt Q9HBH9)", "sequence (Q9HBH9 whole entry, looked up)": "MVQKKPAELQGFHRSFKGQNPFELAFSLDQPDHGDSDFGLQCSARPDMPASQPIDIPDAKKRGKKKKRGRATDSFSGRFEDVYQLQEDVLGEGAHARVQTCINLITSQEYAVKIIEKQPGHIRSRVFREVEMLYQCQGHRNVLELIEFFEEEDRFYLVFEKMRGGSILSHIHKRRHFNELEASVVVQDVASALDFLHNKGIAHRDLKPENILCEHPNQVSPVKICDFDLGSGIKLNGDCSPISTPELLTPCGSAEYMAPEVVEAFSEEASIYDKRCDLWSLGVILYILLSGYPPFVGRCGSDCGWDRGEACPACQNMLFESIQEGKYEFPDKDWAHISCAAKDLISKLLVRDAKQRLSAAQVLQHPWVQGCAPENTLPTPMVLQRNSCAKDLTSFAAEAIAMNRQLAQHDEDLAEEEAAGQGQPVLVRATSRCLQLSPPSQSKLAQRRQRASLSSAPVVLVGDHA", "assay": "Selectivity interaction (KinomeScan (DiscoverX)) EUB0000618a MKNK2", "details": "at 10 µM"}, "[7]": {"target": "Tyrosine-protein kinase BTK (Homo sapiens, UniProt Q06187)", "sequence (Q06187 whole entry)": "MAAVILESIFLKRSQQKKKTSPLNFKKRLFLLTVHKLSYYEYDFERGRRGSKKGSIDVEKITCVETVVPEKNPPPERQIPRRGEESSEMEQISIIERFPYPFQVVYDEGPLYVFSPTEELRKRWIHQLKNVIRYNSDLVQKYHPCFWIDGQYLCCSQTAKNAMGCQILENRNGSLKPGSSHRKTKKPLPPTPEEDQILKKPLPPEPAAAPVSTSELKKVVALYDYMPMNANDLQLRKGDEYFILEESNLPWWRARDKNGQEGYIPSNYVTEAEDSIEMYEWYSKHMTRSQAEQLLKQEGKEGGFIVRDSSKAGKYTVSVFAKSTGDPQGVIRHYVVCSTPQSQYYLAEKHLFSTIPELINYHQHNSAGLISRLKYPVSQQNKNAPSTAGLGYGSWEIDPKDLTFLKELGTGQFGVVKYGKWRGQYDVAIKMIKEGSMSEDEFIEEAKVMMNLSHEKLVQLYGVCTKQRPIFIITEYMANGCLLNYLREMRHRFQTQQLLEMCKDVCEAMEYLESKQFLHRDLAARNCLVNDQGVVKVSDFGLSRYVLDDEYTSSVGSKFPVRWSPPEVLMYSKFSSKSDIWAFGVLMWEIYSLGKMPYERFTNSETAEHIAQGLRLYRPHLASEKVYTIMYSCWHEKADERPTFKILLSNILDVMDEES", "assay": "Selectivity interaction (ActivX KiNativ screen (ex vivo kinase selectivity in human PBMCs)) EUB0001619a BTK", "format": "cell-based", "details": "PBMC, at 1 µM"}, "[8]": {"test_system": "T3, Receptor-type tyrosine-protein kinase FLT3 (Homo sapiens), P36888 [D835Y]", "T3 sequence (whole entry)": "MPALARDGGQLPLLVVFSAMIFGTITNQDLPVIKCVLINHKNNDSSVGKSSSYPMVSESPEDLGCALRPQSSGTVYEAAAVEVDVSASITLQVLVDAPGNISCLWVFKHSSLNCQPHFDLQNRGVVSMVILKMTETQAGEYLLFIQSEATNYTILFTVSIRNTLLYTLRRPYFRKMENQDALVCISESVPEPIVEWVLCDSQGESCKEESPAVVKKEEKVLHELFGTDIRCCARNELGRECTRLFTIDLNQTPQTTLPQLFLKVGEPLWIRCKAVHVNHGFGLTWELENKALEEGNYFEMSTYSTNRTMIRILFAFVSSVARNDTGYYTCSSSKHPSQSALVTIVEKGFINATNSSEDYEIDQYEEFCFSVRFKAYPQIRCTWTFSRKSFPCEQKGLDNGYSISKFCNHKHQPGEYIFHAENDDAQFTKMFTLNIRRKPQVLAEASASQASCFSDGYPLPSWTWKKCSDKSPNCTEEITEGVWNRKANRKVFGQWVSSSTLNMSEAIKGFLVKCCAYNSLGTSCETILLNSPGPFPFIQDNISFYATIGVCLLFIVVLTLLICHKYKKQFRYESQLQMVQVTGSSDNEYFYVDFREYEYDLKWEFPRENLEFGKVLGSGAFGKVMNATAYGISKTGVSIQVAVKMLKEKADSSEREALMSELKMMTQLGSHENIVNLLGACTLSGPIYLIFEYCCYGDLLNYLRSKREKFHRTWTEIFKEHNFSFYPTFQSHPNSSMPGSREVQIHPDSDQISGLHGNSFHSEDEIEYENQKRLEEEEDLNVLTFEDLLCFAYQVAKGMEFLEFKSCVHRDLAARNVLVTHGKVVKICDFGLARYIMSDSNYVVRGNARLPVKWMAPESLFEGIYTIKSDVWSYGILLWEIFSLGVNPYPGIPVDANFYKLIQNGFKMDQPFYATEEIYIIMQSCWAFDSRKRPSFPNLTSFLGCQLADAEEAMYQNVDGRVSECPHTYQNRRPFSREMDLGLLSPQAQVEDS", "assay": "Selectivity interaction (ProQinase) EUB0000171b FLT3"}},
  "data": [
    {"smiles": "COc1cc(Nc2nc(C)cc(-c3cnn4nc(OC)ccc34)n2)cc(C(F)(F)F)c1", "values": [
      {"measurement": "% of control", "setting": "[1]", "result": 87, "unit": "%"}
    ]},
    {"smiles": "CN1Cc2nccc(-c3cn(C)nc3-c3ccc(F)cc3)c2C1=O", "values": [
      {"measurement": "IC50", "setting": "[2]", "result": 4.95, "unit": "µM"}
    ]},
    {"smiles": "O=C(NOC[C@H](O)CO)c1ccc(F)c(F)c1Nc1ccc(I)cc1F", "values": [
      {"measurement": "% of control", "setting": "[3]", "result": 79, "unit": "%"}
    ]},
    {"smiles": "Nc1cnc(N2CCc3cc(S(=O)(=O)Nc4c(F)cc(Cl)cc4F)cc(N4CCCC4=O)c32)nc1", "note": "[TP-020n]", "values": [
      {"measurement": "% of control", "setting": "[4]", "result": 76, "unit": "%"}
    ]},
    {"smiles": "C=CC(=O)Nc1ccc(C(=O)Nc2[nH]nc3c2CN(C(=O)N[C@H](CN(C)C)c2ccccc2)C3(C)C)cc1", "values": [
      {"measurement": "% of engagement", "setting": "[5]", "result": -6.3, "unit": "%"}
    ]},
    {"smiles": "O[C@H]1CC[C@H](Nc2ncc3nc(Nc4c(F)cc(F)cc4F)n([C@H]4CCOC4)c3n2)CC1", "values": [
      {"measurement": "% of control", "setting": "[6]", "result": 100, "unit": "%"}
    ]},
    {"smiles": "N#Cc1cccc(-c2c[nH]c3ncnc(N4CCOCC4)c23)c1", "values": [
      {"measurement": "% of inhibition", "setting": "[7]", "result": 13, "unit": "%"}
    ]},
    {"smiles": "C=CC(=O)Nc1cccc(C(=O)Nc2ccc(Nc3cc(-c4[nH]c(SC)nc4C)ccn3)cc2)c1", "values": [
      {"measurement": "% of control", "setting": "[8]; at 1 µM", "result": 65, "unit": "%"},
      {"measurement": "% of control", "setting": "[8]; at 5 µM", "result": 32, "unit": "%"}
    ]}
  ]
}
